# According to US5266566A, “Method of treating fungal infections using sterodial ester compounds” (British Technology Group Limited, priority 1989, dated 1993):
# Entries after “also recorded” stand apart in the source; their conditions may differ. Where two headings read alike, the source gives them in different places.
# Assays:
# Assay in all cases: Disc diffusion antifungal test (zones of inhibition, approximate MIC)
# Format in all cases: cell-based
# [1] = system: Trichophyton mentagrophytes NCPF 224
# Procedure: (§1) Candida albicans NCYC 597; Trichophyton mentagrophytes NCPF 224 and Microsporum audonii NCPF 638 were used throughout as test organisms. These are open deposits at the National Collection of Yeast Cultures, Norwich UK and the National Collection of Pathogenic Fungi of the Commonwealth Mycological Institute, Kew UK.
# (§2) All organisms were maintained in a nutrient broth containing (gl^-1): Lab Lemco (Oxoid), 5; Peptone (Oxoid), 5; NaCl, 10. Cultures for testing antimicrobial activity were grown in this medium for 18 h prior to use. Solidified media were prepared by the addition of Agar (Oxoid No. 3) 1.5% w/v.
# (§3) Antifungal activity was estimated using solutions of the compound (as the free acid) in dimethyl sulphoxide. A range of concentrations was used for each compound to permit calculation of an approximate MIC. 13 mm discs (Whatman) were soaked in a solution of the appropriate dilution, either allowed to dry, or placed directly onto the surface of nutrient agar plates seeded with the required test organism.
# (§4) After 24 h incubation the diameters of zones of inhibition were measured. After a further 24 h incubation, the plates were re-examined and zones re-measured. The compounds were tested in three groups.
# [2] = system: Candida albicans NCYC 597; details: for MIC: Candida albicans; for Activity against Candida albicans (in words): result in words
# Procedure: as §1, §2, §3, §4
# [3] = system: Microsporum audonii NCPF 638; details: for MIC: Microsporum
# Procedure: as §1, §2, §3, §4
# [4] = NCPF224, Table 3, Group 3 tests, read-out: MIC T. ment.
# [5] = NCPF638, Table 3, Group 3 tests, read-out: MIC M. aud.
# [6] = NCPF224, Table 2, Group 2 tests, read-out: MIC Trichophyton mentagrophytes
# [7] = NCPF638, Table 2, Group 2 tests, read-out: MIC Microsporum audonii
# [8] = NCPF224, Table 1, Group 1 tests, read-out: MIC T. ment.
# [9] = NCYC597, read-out: MIC C. albicans, Table 1, Group 1 tests
# [10] = NCPF638, Table 1, Group 1 tests, read-out: MIC M. aud.
# [11] = NCPF224, read-out: MIC T. ment., Table 1, Group 1 tests
# [12] = NCPF224, read-out: MIC Trichophyton mentagrophytes, Table 2, Group 2 tests
# [13] = NCYC597, read-out: MIC Candida albicans, Table 2, Group 2 tests
# [14] = NCPF638, read-out: MIC M. aud., Table 1, Group 1 tests
# [15] = NCPF638, read-out: MIC Microsporum audonii, Table 2, Group 2 tests
# [16] = NCYC597, read-out: MIC C. albicans, Table 3, Group 3 tests
# [17] = NCYC597, Table 1, Group 1 tests, read-out: MIC C. albicans
structure (smiles),measurement,setting,value
"CCCCOC(=O)CC[C@@H](C)[C@H]1CC[C@H]2[C@@H]3[C@H](O)C[C@@H]4C[C@H](O)CC[C@]4(C)[C@H]3CC[C@]12C [Butyl chenodeoxycholate, n-butyl chenodeoxycholate]",MIC,[1]; [4],1500 µg/mL
same,MIC C. albicans,"[2]; Table 3, Group 3 tests",no effect
same,MIC,[3]; [5],1000 µg/mL
"CCCCOC(=O)CC[C@@H](C)[C@H]1CC[C@H]2[C@@H]3CC[C@@H]4C[C@H](O)CC[C@]4(C)[C@H]3C[C@H](O)[C@]12C [Butyl deoxycholate, n-butyl deoxycholate]",MIC,[1]; [6],850 µg/mL
same,MIC,[3]; [7],875 µg/mL
"CCCCOC(=O)CC[C@@H](C)[C@H]1CC[C@H]2[C@@H]3CC[C@@H]4C[C@H](O)CC[C@]4(C)[C@H]3CC[C@]12C [Butyl lithocholate, n-butyl lithocholate]",MIC,[1]; [6],1100 µg/mL
same,MIC,[3]; [7],900 µg/mL
"C[C@H](CCC(=O)O)[C@H]1CC[C@H]2[C@@H]3[C@H](O)C[C@@H]4C[C@H](O)CC[C@]4(C)[C@H]3CC[C@]12C [Chenodeoxycholic acid, reference compound]",MIC,[1]; [8],1300 µg/mL
same,MIC,[2]; [9],140 µg/mL
same,MIC,[3]; [10],1000 µg/mL
"C[C@H](CCC(=O)O)[C@H]1CC[C@H]2[C@@H]3[C@H](O)C[C@@H]4C[C@H](O)CC[C@]4(C)[C@H]3C[C@H](O)[C@]12C [Cholic acid, reference compound]",MIC,[1]; [11],10000 µg/mL
same,MIC,[1]; [12],~10000 µg/mL
same,MIC,[2]; [9],390 µg/mL
same,MIC,[2]; [13],405 µg/mL
same,MIC,[3]; [14],5500 µg/mL
same,MIC,[3]; [15],~5000 µg/mL
"C[C@H](CCC(=O)O)[C@H]1CC[C@H]2[C@@H]3CC[C@@H]4C[C@H](O)CC[C@]4(C)[C@H]3C[C@H](O)[C@]12C [Deoxycholic acid, reference compound]",MIC,[1]; [8],300 µg/mL
same,MIC,[1]; [6],310 µg/mL
same,MIC,[1]; [4],250 µg/mL
same,MIC,[2]; [9],2100 µg/mL
same,MIC,[2]; [16],1800 µg/mL
same,MIC,[2]; [13],2000 µg/mL
same,Activity against Candida albicans (in words),[2],poorer action against Candida
same,MIC,[3]; [10],30 µg/mL
same,MIC,[3]; [7],35 µg/mL
same,MIC,[3]; [5],40 µg/mL
same,Activity against Microsporum audonii (in words),[3]; result in words,very highly effective; also recorded: effective
"C[C@H](CCC(=O)O)[C@H]1CC[C@H]2[C@@H]3CC[C@@H]4C[C@H](O)CC[C@]4(C)[C@H]3CC[C@]12C [Lithocholic acid, reference compound]",MIC,[2]; [17],410 µg/mL
same,MIC,[3]; [10],100 µg/mL
"COC(=O)CC[C@@H](C)[C@H]1CC[C@H]2[C@@H]3[C@H](O)C[C@@H]4C[C@H](O)CC[C@]4(C)[C@H]3CC[C@]12C [Methyl chenodeoxycholate, methyl chenodeoxycholate]",MIC,[1]; [11],460 µg/mL
same,MIC,"[1]; NCPF224, read-out: MIC T. ment., Table 3, Group 3 tests",1000 µg/mL
same,MIC,[2]; [9],20 µg/mL
same,MIC,[2]; [16],1000 µg/mL
same,MIC,[3]; [14],30 µg/mL
same,MIC,"[3]; NCPF638, read-out: MIC M. aud., Table 3, Group 3 tests",800 µg/mL
"COC(=O)CC[C@@H](C)[C@H]1CC[C@H]2[C@@H]3[C@H](O)C[C@@H]4C[C@H](O)CC[C@]4(C)[C@H]3C[C@H](O)[C@]12C [Methyl cholate, methyl cholate]",MIC,[1]; [8],80 µg/mL
same,MIC,[2]; [17],3500 µg/mL
same,MIC,[3]; [10],50 µg/mL
"COC(=O)CC[C@@H](C)[C@H]1CC[C@H]2[C@@H]3CC[C@@H]4C[C@H](O)CC[C@]4(C)[C@H]3C[C@H](O)[C@]12C [Methyl deoxycholate, methyl deoxycholate]",MIC,[1]; [8],900 µg/mL
same,MIC,[1]; [6],250 µg/mL
same,MIC,[1]; [4],500 µg/mL
same,MIC,[2]; [17],20 µg/mL
same,MIC,"[2]; NCYC597, Table 2, Group 2 tests, read-out: MIC Candida albicans",31 µg/mL
same,MIC,"[2]; NCYC597, Table 3, Group 3 tests, read-out: MIC C. albicans",28 µg/mL
same,Homogeneity of effect in the zone of inhibition,"[2]; Group 2 tests, many resistant colonies in the zone",not homogeneous
same,Activity against Candida albicans (in words),[2],highly effective; also recorded: outstanding
same,MIC,[3]; [10],520 µg/mL
same,MIC,[3]; [7],200 µg/mL
same,MIC,[3]; [5],450 µg/mL
"COC(=O)CC[C@@H](C)[C@H]1CC[C@H]2[C@@H]3CC[C@@H]4C[C@H](O)CC[C@]4(C)[C@H]3CC[C@]12C [Methyl lithocholate, methyl lithocholate]",MIC,[1]; [12],1000 µg/mL
same,MIC,[3]; [15],950 µg/mL
